According to patent US20240132525A1, “BORON […], CO[…], METHODS AND USES THEREOF” (priority 2022, published 2024):
Where two headings read alike, the source gives them in different places.

Tests used:
JAK1 = JAK1 (Homo sapiens (Human), UniProt P23458); assay: Biochemical kinase assay (33P-ATP filter-binding), JAK1; conditions: read-out: IC50 JAK1
Text: (§1) Biochemical Kinase Assay Protocol (JAK)
(§2) Reaction Procedure: • 1. […] Detected kinase activity by filter-binding method.

IL-4/pSTAT6 = assay: Cytokine function assay IL-4/pSTAT6 in PBMC; type: cell-based
Method: (§3) Cytokine Function Assay Protocols for IL-4/pSTAT6 and GM-CSF/pSTAT5
IL-4/pSTAT6: • PBMC from a healthy donor was plated onto a 96 w plate. Compound was added and incubated for 1 hour (at 37° C.). After 1 hour, cells were stimulated with IL-4 for 15 minutes. Cells were fixed and stained with anti-pSTAT6 antibody. After staining, cells were read on a Beckman-Coulter CytoFLEX.

[1] = Dog LM (liver microsome) assay; type: in vitro ADME; conditions: predicted clearance as percent of liver blood flow
Method: Dog LM (Liver Microsome) Assay
The metabolic degradation of the test compound is assayed at 37° C. with pooled liver microsomes from dogs (Beagle). The final incubation volume of 100 μl per time point contains TRIS buffer pH 7.6 at RT (0.1 M), magnesium chloride (5 mM), microsomal protein (1 mg/ml) and the test compound at a final concentration of 1 μM. Following a short preincubation period at 37° C., the reactions were initiated by addition of beta-nicotinamide adenine dinucleotide phosphate, reduced form (NADPH, 1 mM) and terminated by transferring an aliquot into solvent after different time points. Additionally, the NADPH-independent degradation was monitored in incubations without NADPH, terminated at the last time point. The [%] remaining test compound after NADPH independent incubation is reflected by the parameter c (control) (metabolic stability). The quenched incubations are pelleted by centrifugation (10000 g, 5 min). An aliquot of the supernatant is assayed by LC-MS/MS for the amount of parent compound. The half-life (t½ INVITRO) is determined by the slope of the semilogarithmic plot of the concentration-time profile. The intrinsic clearance (CL_[…]) is calculated by considering the amount of protein in the incubation: CL_[…] [μl/min/mg protein]=(Ln 2/(half-life [min]*protein content [mg/ml]))*1000. For better across species comparison the predicted clearance is expressed as percent of the liver blood flow [% QH] in the individual species. In general, high stability (corresponding to low % QH) of the compounds across species is desired.

GM-CSF/pSTAT5 = assay: Cytokine function assay GM-CSF/pSTAT5 in lysed whole blood cells; type: cell-based; conditions: Table 3b, comparator compounds; read-out: IC50 GM-CSF
Method: as §3
GM-CSF/pSTAT5: • Whole blood from a healthy donor was lysed to remove red blood cells. Cells were plated onto a 96 well plate. Compound was added and incubated for 1 hour (at 37° C.). After 1 hour, cells were stimulated with GM-CSF for 15 minutes. Cells were fixed and stained with anti-pSTAT5 antibody. After staining, cells were read on a Beckman-Coulter CytoFLEX.

PDE4B = PDE4B (Homo sapiens (Human), UniProt Q07343); assay: PDE4B inhibition; type: biochemical
Chain of PDE4B (Q07343 whole entry, species assumed): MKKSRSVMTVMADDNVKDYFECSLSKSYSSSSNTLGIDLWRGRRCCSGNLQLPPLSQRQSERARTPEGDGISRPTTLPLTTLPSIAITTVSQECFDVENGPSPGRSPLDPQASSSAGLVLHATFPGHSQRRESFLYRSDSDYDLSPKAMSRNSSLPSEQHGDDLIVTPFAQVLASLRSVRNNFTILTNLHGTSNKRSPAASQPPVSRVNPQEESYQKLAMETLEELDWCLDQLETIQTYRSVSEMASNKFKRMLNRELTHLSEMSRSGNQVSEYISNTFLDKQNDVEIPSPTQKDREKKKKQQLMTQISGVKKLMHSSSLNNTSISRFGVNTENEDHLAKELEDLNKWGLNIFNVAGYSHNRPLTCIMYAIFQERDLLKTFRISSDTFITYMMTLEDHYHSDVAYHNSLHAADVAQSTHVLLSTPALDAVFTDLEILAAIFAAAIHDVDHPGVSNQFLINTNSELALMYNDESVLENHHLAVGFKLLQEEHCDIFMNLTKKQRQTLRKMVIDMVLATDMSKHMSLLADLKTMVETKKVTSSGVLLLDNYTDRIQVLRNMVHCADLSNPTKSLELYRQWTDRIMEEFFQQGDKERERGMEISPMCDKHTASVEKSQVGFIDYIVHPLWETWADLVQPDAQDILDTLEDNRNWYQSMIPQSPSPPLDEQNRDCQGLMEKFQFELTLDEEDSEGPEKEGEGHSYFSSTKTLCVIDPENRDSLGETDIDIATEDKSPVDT

JAK2 = JAK2 (Homo sapiens (Human), UniProt O60674); assay: Biochemical kinase assay (33P-ATP filter-binding), JAK2; conditions: read-out: IC50 JAK2
Chain of JAK2 (O60674 whole entry, species assumed): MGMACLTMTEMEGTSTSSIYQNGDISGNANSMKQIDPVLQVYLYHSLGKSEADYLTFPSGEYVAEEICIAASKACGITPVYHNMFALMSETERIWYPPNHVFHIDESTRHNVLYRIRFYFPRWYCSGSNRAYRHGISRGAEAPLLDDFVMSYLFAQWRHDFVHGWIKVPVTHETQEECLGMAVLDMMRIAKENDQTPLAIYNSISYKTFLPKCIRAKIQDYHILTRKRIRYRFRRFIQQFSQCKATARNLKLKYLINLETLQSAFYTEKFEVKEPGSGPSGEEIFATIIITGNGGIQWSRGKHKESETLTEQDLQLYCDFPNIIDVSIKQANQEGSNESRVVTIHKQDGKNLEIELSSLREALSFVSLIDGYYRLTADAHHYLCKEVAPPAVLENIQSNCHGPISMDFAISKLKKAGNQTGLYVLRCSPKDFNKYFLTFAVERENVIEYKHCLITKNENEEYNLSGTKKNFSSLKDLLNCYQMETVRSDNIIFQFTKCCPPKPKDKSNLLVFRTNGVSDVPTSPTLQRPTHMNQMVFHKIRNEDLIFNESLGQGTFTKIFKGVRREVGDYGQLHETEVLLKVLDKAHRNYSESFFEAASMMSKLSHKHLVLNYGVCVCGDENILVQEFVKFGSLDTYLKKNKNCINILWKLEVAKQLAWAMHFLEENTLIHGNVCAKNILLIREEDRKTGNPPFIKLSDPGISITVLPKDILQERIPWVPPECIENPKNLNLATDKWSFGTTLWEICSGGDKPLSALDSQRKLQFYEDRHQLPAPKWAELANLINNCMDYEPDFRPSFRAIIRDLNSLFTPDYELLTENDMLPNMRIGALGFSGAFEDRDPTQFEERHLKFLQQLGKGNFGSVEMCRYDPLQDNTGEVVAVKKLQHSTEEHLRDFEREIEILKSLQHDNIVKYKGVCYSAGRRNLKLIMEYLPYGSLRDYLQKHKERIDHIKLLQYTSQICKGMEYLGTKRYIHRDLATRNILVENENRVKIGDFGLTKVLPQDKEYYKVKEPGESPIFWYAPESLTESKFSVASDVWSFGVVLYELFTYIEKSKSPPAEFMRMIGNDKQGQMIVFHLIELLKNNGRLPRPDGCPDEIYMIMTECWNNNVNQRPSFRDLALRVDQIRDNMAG
Text: as §1, §2

[2] = Table 3b, comparator compounds, read-out: IC50 IL-4
[3] = PBMC, read-out: IC50 IL-4, Table 3a
[4] = Table 3a, 1 μM, 1 mg/ml microsomal protein

Chain of JAK1 (P23458 whole entry, species assumed): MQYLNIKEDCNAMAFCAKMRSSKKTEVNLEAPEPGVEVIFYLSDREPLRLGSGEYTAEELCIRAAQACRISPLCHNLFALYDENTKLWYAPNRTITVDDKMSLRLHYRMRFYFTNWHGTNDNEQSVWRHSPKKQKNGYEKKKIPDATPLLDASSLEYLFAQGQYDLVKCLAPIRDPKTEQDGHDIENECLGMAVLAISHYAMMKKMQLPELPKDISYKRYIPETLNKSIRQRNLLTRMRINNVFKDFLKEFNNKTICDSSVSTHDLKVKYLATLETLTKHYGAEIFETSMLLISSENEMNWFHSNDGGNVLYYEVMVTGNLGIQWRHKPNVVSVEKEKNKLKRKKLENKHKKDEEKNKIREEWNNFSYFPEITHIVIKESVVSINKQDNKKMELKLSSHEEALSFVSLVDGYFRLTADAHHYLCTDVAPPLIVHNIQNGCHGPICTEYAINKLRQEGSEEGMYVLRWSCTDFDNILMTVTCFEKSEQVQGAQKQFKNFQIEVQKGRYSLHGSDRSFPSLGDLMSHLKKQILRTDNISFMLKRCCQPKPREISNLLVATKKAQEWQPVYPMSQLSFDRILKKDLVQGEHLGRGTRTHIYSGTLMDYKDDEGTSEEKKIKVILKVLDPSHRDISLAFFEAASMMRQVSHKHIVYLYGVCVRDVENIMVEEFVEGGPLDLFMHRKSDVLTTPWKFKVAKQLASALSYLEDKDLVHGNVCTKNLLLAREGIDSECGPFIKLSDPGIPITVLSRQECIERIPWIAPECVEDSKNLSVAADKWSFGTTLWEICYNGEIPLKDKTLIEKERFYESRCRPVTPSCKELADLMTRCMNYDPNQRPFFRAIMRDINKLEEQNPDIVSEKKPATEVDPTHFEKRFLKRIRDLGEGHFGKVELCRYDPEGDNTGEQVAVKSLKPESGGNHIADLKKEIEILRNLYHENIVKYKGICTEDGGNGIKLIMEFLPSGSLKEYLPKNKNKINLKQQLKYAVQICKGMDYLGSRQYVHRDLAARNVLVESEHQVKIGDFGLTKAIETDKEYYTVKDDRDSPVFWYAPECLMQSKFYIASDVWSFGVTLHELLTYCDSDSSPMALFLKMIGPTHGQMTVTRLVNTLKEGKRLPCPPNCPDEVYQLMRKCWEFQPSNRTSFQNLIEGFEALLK

| Compound | IC50 (JAK1; Table 3b, comparator compounds) | IC50 (IL-4/pSTAT6; [2]) | Dog LM QH ([1]; Table 3b, comparator compounds) | IC50 (GM-CSF/pSTAT5) | IC50 (PDE4B; Table 3b, comparator compounds) | IC50 (JAK2; Table 3b, comparator compounds) | Inhibition PDE4B @ 1 μM (PDE4B; Table 3b, comparator compounds) | IC50 (JAK1; Table 3a) | IC50 (IL-4/pSTAT6; [3]) | Dog LM QH [1, 4] | IC50 (JAK2; Table 3a) | IC50 (PDE4B; Table 3a) | IC50 (IL-4/pSTAT6; read-out: IC50 IL-4, Table 3a) |
| --- | --- | --- | --- | --- | --- | --- | --- | --- | --- | --- | --- | --- | --- |
| OB1OCc2cc(Nc3ncc(Cl)c(NC4CCCC4)n3)ccc21 [Example C014] | 3.3 nM | 782 nM | 78.5% | 5350 nM | 52.7 nM | 179 nM |  |  |  |  |  |  |  |
| CCC(CC)Nc1nc(Nc2ccc3c(c2)COB3O)ncc1C [Example C001] | 1.6 nM | 115 nM | 73.8% | 1720 nM | 92.2 nM | 60.2 nM | 90% |  |  |  |  |  |  |
| OB1OCc2cc(Nc3ncc(C(F)(F)F)c(NC4CCCC4)n3)ccc21 [Example C019] | 29.5 nM |  | 73.8% |  | 275 nM | 171 nM | 90% |  |  |  |  |  |  |
| Cc1cnc(Nc2cc(Cl)c3c(c2)COB3O)nc1NC1CCCCC1 [Example C012] | 0.1 nM | 224 nM | <19.9% | 1780 nM |  | 6.5 nM |  |  |  |  |  |  |  |
| OB1OCc2cc(Nc3ncc(Cl)c(NC4CCCC4)n3)cc(F)c21 [Example C015] | 0.8 nM |  | 67.2% |  | 85.7 nM | 26.5 nM |  |  |  |  |  |  |  |
| CCC(CC)Nc1nc(Nc2cc(C)c3c(c2)COB3O)ncc1C [Example C004] | 1.1 nM | 118 nM | 34.5% | > 10000 nM |  | 41 nM | 22% |  |  |  |  |  |  |
| Cc1cnc(Nc2cc(C)c3c(c2)COB3O)nc1NC1CCCC1 [Example C008] | 2.3 nM | 973 nM | 54.3% | > 10000 nM |  | 59.3 nM | 37% |  |  |  |  |  |  |
| Cc1cnc(Nc2ccc3c(c2)C(C)(C)OB3O)nc1NC1CCCC1 [Example C009] | 2.4 nM | 218 nM | 83.4% | 4220 nM | 761 nM | 83.9 nM | 40% |  |  |  |  |  |  |
| Cc1cnc(Nc2ccc3c(c2)C(C(C)C)=CB(O)O3)nc1N[C@H]1COCC[C@@H]1C#N (single isomer, unassigned) [Example 039a, (trans)-3-((2-((2-hydroxy-4-isopropyl-2H-benzo[e][1,2]oxaborinin-6-yl)amino)-5-methylpyrimidin-4-yl)amino)tetrahydro-2H-pyran-4-carbonitrile] |  |  |  |  |  |  |  | 1.1 nM | 265 nM | 78.4% | 18.9 nM |  |  |
| CCC(CC)Nc1nc(Nc2ccc3c(c2)COB3O)ncc1Cl [Example C005] | 1.1 nM | 6120 nM |  | 2250 nM | 379 nM | 33.3 nM |  |  |  |  |  |  |  |
| Cc1cnc(Nc2cc3c(c(C(F)(F)F)c2)B(O)OC3)nc1N[C@@H]1CCC[C@H]1C#N (relative stereo) [Example 006, (trans)2-[[2-[[1-hydroxy-7-(trifluoromethyl)-3H-2,1-benzoxaborol-5-yl]amino]-5-methyl-pyrimidin-4-yl]amino]cyclopentanecarbonitrile] |  |  |  |  |  |  |  | 1 nM | 202 nM | <19.9% | 36.6 nM |  |  |
| OB1OCc2cc(Nc3ncc(Cl)c(NC4CCCCC4)n3)ccc21 [Example C018] |  |  | 56.0% |  | 108 nM | 118 nM |  |  |  |  |  |  |  |
| Cc1cnc(Nc2ccc3c(c2)COB3O)nc1NC1CCCC1 [Example C006] | 6.5 nM | 293 nM | >86.6% | 270 nM | 114 nM | 154 nM | 86% |  |  |  |  |  |  |
| Cc1cnc(Nc2ccc3c(c2)COB3O)nc1N[C@@H]1CCC[C@H]1C#N (relative stereo) [Example 001, (trans)-2-((2-((1-hydroxy-1,3-dihydrobenzo[c][1,2]oxaborol-5-yl)amino)-5-methylpyrimidin-4-yl)amino)cyclopentane-1-carbonitrile] |  |  |  |  |  |  |  | 1.1 nM | 173 nM | 39.7% | 24.7 nM | 362 nM |  |
| Cc1cnc(Nc2ccc3c(c2)C=CB(O)O3)nc1N[C@@H]1COCC[C@H]1C#N (relative stereo) [Example 035, (trans)-3-[[2-[(2-hydroxy-1,2-benzoxaborinin-6-yl)amino]-5-methyl-pyrimidin-4-yl]amino]tetrahydropyran-4-carbonitrile] |  |  |  |  |  |  |  | 0.7 nM |  | 43.7% | 8.8 nM | 320 nM |  |
| CCC(CC)Nc1nc(Nc2cc(Cl)c3c(c2)COB3O)ncc1C [Example C002] | 1.1 nM | 155 nM | <19.9% | 10000 nM |  | 95.7 nM |  |  |  |  |  |  |  |
| Cc1cc(Nc2ncc(Cl)c(NC3CCCC3)n2)cc2c1B(O)OC2 [Example C016] | 2.1 nM | 688 nM | 54.5% | 927 nM |  | 663 nM | 30% |  |  |  |  |  |  |
| OB1OCc2cc(Nc3nccc(NC4CCCCC4)n3)ccc21 [Example C010] | 48 nM |  |  |  | 956 nM | 364 nM | 53% |  |  |  |  |  |  |
| Cc1cnc(Nc2cc(Cl)c3c(c2)COB3O)nc1N[C@@H]1CCC[C@H]1C#N (single isomer, unassigned) [Example 003b, (trans)-2-((2-((7-chloro-1-hydroxy-1,3-dihydrobenzo[c][1,2]oxaborol-5-yl)amino)-5-methylpyrimidin-4-yl)amino)cyclopentane-1-carbonitrile] |  |  |  |  |  |  |  | 5 nM |  | <19.9% | 83.1 nM |  | 74.8 nM |
| N#C[C@@H]1CCC[C@H]1Nc1nc(Nc2ccc3c(c2)COB3O)ncc1Cl (relative stereo) [Example 005, (trans)-2-[[5-chloro-2-[(1-hydroxy-3H-2,1-benzoxaborol-5-yl)amino]pyrimidin-4-yl]amino]cyclopentane-1-carbonitrile] |  |  |  |  |  |  |  | 0.5 nM |  | <19.9% | 9 nM | 44.5 nM |  |
| Cc1cnc(Nc2cc3c(c(C(F)(F)F)c2)OB(O)C=C3)nc1N[C@@H]1COCC[C@H]1C#N (relative stereo) [Example 037, (trans)-3-[[2-[[2-hydroxy-8-(trifluoromethyl)-1,2-benzoxaborinin-6-yl]amino]-5-methyl-pyrimidin-4-yl]amino]tetrahydropyran-4-carbonitrile] |  |  |  |  |  |  |  | 3.1 nM | 919 nM | 19.9% | 18.5 nM |  |  |
| Cc1cnc(Nc2cc(Cl)c3c(c2)COB3O)nc1NC1CCCC1 [Example C007] | 0.7 nM | 300 nM | 52.1% | 3740 nM | 113 nM | 31.8 nM |  |  |  |  |  |  |  |
| N#C[C@@H]1CCOC[C@H]1Nc1nc(Nc2cc(Cl)c3c(c2)COB3O)ncc1C(F)(F)F (relative stereo) [Example 049, (trans)-3-((2-((7-chloro-1-hydroxy-1,3-dihydrobenzo[c][1,2]oxaborol-5-yl)amino)-5-(trifluoromethyl)pyrimidin-4-yl)amino)tetrahydro-2H-pyran-4-carbonitrile] |  |  |  |  |  |  |  | 8.2 nM | 173 nM | 39.7% | 13.3 nM | 362 nM |  |
| OB1OCc2cc(Nc3ncc(F)c(NC4CCCCC4)n3)ccc21 [Example C017] | 11.2 nM | 1640 nM | 53.5% | 10000 nM |  | 1850 nM |  |  |  |  |  |  |  |
| OB1OCc2cc(Nc3ncc(C(F)(F)F)c(NC4CCCCC4)n3)ccc21 [Example C020] | 44.1 nM |  | <19.9% |  | 37.6 nM | 397 nM |  |  |  |  |  |  |  |
| CCC(CC)Nc1nc(Nc2cc(F)c3c(c2)COB3O)ncc1C [Example C003] | 0.7 nM | 125 nM | 41.0% | 1160 nM | 212 nM | 43.7 nM |  |  |  |  |  |  |  |
